Patent US20210087184A1, “AMINO-BENZOISOTHIAZOLE AND AMINO-BENZOISOTHIADIAZOLE AMIDE COMPOUNDS” (Aerie Pharmaceuticals, Inc., priority 2018, published 2021)
Structures can show the parent of a compound that is named as a salt.

Assay: Topical pharmaceutical composition administered to the eyes (Examples 246-253)
Type: in vivo
Settings: for intraocular pressure / neuroprotective agent: 0.50 wt % topical eye drop composition of Example 246
Description: Topical pharmaceutical compositions for lowering intraocular pressure are prepared by conventional methods and formulated as follows: […]
A compound according to this disclosure is used as the 6-aminobenzoisothiazole derivative. […]

[1] = 0.50 wt % topical eye drop composition of Example 246, twice per day

| SMILES | intraocular pressure | neuroprotective agent | hyperemia, redness and ocular irritation (0.50 wt % topical eye drop composition of Example 246, as needed) | allergic symptoms [1] | dry eye syndrome [1] |
| --- | --- | --- | --- | --- | --- |
| Cl.Cl.NCC(C(=O)Nc1ccc2cnsc2c1F)c1ccsc1 (stereo not drawn) [3-amino-N-(7-fluoro-benzoisothiazol-6-yl)-2-(thiophen-3-yl)propanamide dihydrochloride] | substantially decreases | serves as a neuroprotective agent |  |  |  |
| NC(CC(=O)Nc1ccc2cnsc2c1)c1ccsc1 (stereo not drawn) [Example E6, 3-amino-N-(benzoisothiazol-6-yl)-3-(thiophen-3-yl)propanamide dihydrochloride] | substantially decreases | serves as a neuroprotective agent |  |  |  |
| CN(C)CC(C(=O)Nc1ccc2cnsc2c1)c1ccsc1 (stereo not drawn) [Example E44, 3-(dimethylamino)-N-(benzoisothiazol-6-yl)-2-(thiophen-3-yl)propanamide dihydrochloride] |  |  | substantially decreases |  |  |
| NCC(C(=O)Nc1ccc2cnsc2c1)c1ccsc1 (stereo not drawn) [Example E49, 3-amino-N-(benzoisothiazol-6-yl)-2-(thiophen-3-yl)propanamide dihydrochloride] | substantially decreases |  |  |  |  |
| O=C(NCc1ccccn1)c1ccc([C@H]2C[C@@H]2C(=O)Nc2ccc3cnsc3c2)cc1 [Example E150, 4-((1S,2S)-2-(benzoisothiazol-6-ylcarbamoyl)cyclopropyl)-N-(pyridin-2-ylmethyl)benzamide] | substantially decreases |  |  | substantially decreases | relieves |
